Data set [1] deals with RAW264.7. The data set is described as follows: Inhibition of MCP1-induced chemotaxis in mouse RAW264.7 cells at 25 ug/mL relative to control. It counts as functional.
The subject of data set [2] is Mus musculus. The data set is described as follows: Effect on serum alanine aminotransaminase level in concanavalin A-induced acute hepatitis model of BALB/c mouse at 50 mg/kg, po treated 0.5 hrs after concanavalin A challenge measured after 20 hrs (Rvb= 5734.5 +/- 2599.5). It counts as functional.
For data set [3], the system named is Mus musculus. Nature of the data set: Decrease in concanavalin A-induced hepatic cell necrosis in acute hepatitis model of BALB/c mouse at 50 mg/kg, ig treated 0.5 hrs after concanavalin A challenge measured after 20 hrs by H and E staining based histopathology study. It counts as functional, organism-based. Details: dose 50 mg/kg.
In data set [4] the test system is Mus musculus. Nature of the data set: Effect on serum aspartate aminotransaminase level in concanavalin A-induced acute hepatitis model of BALB/c mouse at 50 mg/kg, po treated 0.5 hrs after concanavalin A challenge measured after 20 hrs (Rvb= 4997.9 +/- 2619.6). The class given is functional.
Data set [5] deals with RAW264.7. The data set is described as follows: Inhibition of MCP1-induced chemotaxis in mouse RAW264.7 cells. It counts as functional, cell-based.
Data set [6] concerns Mus musculus. The data set is described as follows: Toxicity in BALB/c mouse assessed as pathological changes in spleen at 50 mg/kg, ig after 20 hrs by H and E staining based histopathology study. It counts as organism-based. The conditions noted are these: in vivo, po. Details: dose 50 mg/kg, route intragastric.
Data set [7] can be described thus: Half life in BALB/c mouse at 30 mg/kg, po. As to conditions: in vivo. Details: dose 30 mg/kg, route oral. It counts as ADME, organism-based.
The subject of data set [8] is Mus musculus. The data set is described as follows: Plasma concentration in BALB/c mouse at 30 mg/kg, po. The class given is ADME, organism-based. Details: dose 30 mg/kg, route oral. The conditions noted are these: in vivo.
Data set [9] concerns Mus musculus. Nature of the data set: Toxicity in BALB/c mouse assessed as pathological changes in liver at 50 mg/kg, ig after 20 hrs by H and E staining based histopathology study. As to conditions: in vivo, po. Details: dose 50 mg/kg, route intragastric. The class given is organism-based.
In data set [10] the test system is Mus musculus. The data set is described as follows: Toxicity in BALB/c mouse assessed as pathological changes in kidney at 50 mg/kg, ig after 20 hrs by H and E staining based histopathology study. Details: dose 50 mg/kg, route intragastric. It counts as organism-based. As to conditions: in vivo, po.
The test system of data set [11] is Mus musculus. The data set is described as follows: Toxicity in BALB/c mouse assessed as pathological changes in heart at 50 mg/kg, ig after 20 hrs by H and E staining based histopathology study. The conditions noted are these: in vivo, po. Details: dose 50 mg/kg, route intragastric. The class given is organism-based.
The test system of data set [12] is Mus musculus. The data set is described as follows: Toxicity in BALB/c mouse liver assessed as change in transaminase level at 50 mg/kg, ig after 20 hrs by H and E staining based histopathology study. The class given is organism-based. Details: dose 50 mg/kg, route intragastric. As to conditions: in vivo, po.
Data set [13] relates to Mus musculus. The data set is described as follows: Toxicity in BALB/c mouse assessed as pathological changes in lung at 50 mg/kg, ig after 20 hrs by H and E staining based histopathology study. The class given is organism-based. Details: dose 50 mg/kg, route intragastric. The conditions noted are these: in vivo, po.
Data set [14] in a line: Tmax in BALB/c mouse at 30 mg/kg, po. As to conditions: in vivo. Details: dose 30 mg/kg, route oral. The class given is ADME, organism-based.
Data set [15] in a line: Oral bioavailability in BALB/c mouse at 30 mg/kg. It counts as ADME, organism-based. As to conditions: in vivo.

Activity calls are given as the source filed them. No cut-off for these calls is given here.

What is called inhibition is the change of the read-out against control, counted positive when it falls. A low value points to a weak effect. What is called IC50 is the concentration needed to halve the response being measured. A lower IC50 goes with higher potency. The half-life is how long it takes for the measured level to halve. A high value points to slow decline. Usually Tmax stands for the time at which the peak concentration occurs. One may read the bioavailability as the share of a dose that reaches the circulation, judged against a reference dose that is usually intravenous. A low value points to little systemic uptake.

In the data set with RAW264.7 [1], `O=C1NC(=S)NC(=O)C1=Cc1ccc(Br)cc1` displayed an inhibition at 25 µg/mL of 4.3%. With `O=C1NC(=S)NC(=O)C1=Cc1ccccc1`, the inhibition at 25 µg/mL in the data set with RAW264.7 [1] came to 10.2%. As to `CN(C)c1ccc(C=C2C(=O)NC(=S)NC2=O)cc1`, the inhibition at 25 µg/mL in the data set on RAW264.7 [1] was found to be 35.7%. The Activity is reported as 2930.2 U/L with Mus musculus [2] and 2072.8 U/L in the data set with Mus musculus [4]. Moreover, the outcome with Mus musculus [3] was Active. Further, in the data set on RAW264.7 [5], the midpoint of inhibition, the IC50, lay at 7.2 µM.

`O=C1C/C(=C\c2ccc(Cl)cc2)C(=O)N1` registered an inhibition at 25 µg/mL in the data set on RAW264.7 [1] of 17.9%. `O=C1NC(=O)/C(=C/c2ccc(O)cc2)S1` had an inhibition at 25 µg/mL in the data set with RAW264.7 [1] of 25.1%.

For `O=C1NC(=S)NC(=O)C1=Cc1ccc(Cl)cc1`, testing at 25 µg/mL in the data set on RAW264.7 [1] gave an inhibition of 4.1%. On the same count and under the same terms, under `COc1ccc(/C=C2\SC(=O)NC2=O)cc1OC` stands 16.6%; under `N=C1NC(=O)/C(=C/c2ccc(Cl)cc2)S1`, 13%; under `N=C1NC(=O)/C(=C/c2ccccc2)S1`, 10.1%.

Consider `O=C1NC(=O)/C(=C/c2ccc(O)cc2)N1` [4-HYDROXYPHENYLMETHYLENE HYDANTOIN], for which the inhibition at 25 µg/mL in the data set on RAW264.7 [1] was found to be 13%. On the same count and under the same terms, the figure for `O=C1NC(=S)NC(=O)C1=Cc1cccc(O)c1` is 5.7%; for `O=C1C/C(=C\c2cccc(O)c2)C(=O)N1` it is 11.4%. The same measure, in the same setting: under `COc1cc(/C=C2\SC(=N)NC2=O)ccc1O` stands 19.9%; under `COc1cc(C=C2C(=O)NC(=O)NC2=O)ccc1O`, 4.1%.

Turning to `CN(C)c1ccc(/C=C2\CC(=O)NC2=O)cc1`, the inhibition at 25 µg/mL in the data set on RAW264.7 [1] was determined as 15.7%. The same measure, in the same setting: under `O=C1NC(=O)C(=Cc2ccc(O)cc2)C(=O)N1` stands 4.3%. Still for that read-out and setting: under `COc1ccc(C=C2C(=O)NC(=O)NC2=O)cc1OC` stands 14.2%; under `COc1cc(C=C2C(=O)NC(=S)NC2=O)ccc1O`, 14.4%; under `COc1ccc(/C=C2\NC(=O)NC2=O)cc1OC`, 8.7%.

`O=C1NC(=O)/C(=C/c2ccccc2)S1` had an inhibition at 25 µg/mL with RAW264.7 [1] of 16.9%.

Consider `O=C1NC(=O)C(=Cc2ccccc2)C(=O)N1`, for which the inhibition at 25 µg/mL with RAW264.7 [1] was 5.7%. Take `O=C1NC(=O)/C(=C/c2ccc3nccnc3c2)S1`: the inhibition at 25 µg/mL with RAW264.7 [1] amounted to 36.9%. Also, the Activity amounted to 1187.5 U/L with Mus musculus [2] and 1084.5 U/L with Mus musculus [4]. In the data set on RAW264.7 [5], this compound returned an IC50 of 5.31 µM. In the case of `O=C1NC(=O)C(=Cc2cccc(O)c2)C(=O)N1`, at 25 µg/mL the inhibition with RAW264.7 [1] was 15%.

The compound `COc1ccc(/C=C2\NC(=O)NC2=O)cc1` came in with an inhibition at 25 µg/mL in the data set on RAW264.7 [1] of 19.9%. In the data set on RAW264.7 [1], `N=C1NC(=O)/C(=C/c2ccc(O)cc2)S1` [MIRIN] gave an inhibition at 25 µg/mL of 4.4%. In the data set with RAW264.7 [1], `COc1ccc(C=C2C(=O)NC(=O)NC2=O)cc1` gave an inhibition at 25 µg/mL of 6.2%.

`COc1ccc(C=C2C(=O)NC(=S)NC2=O)cc1OC` came in with an inhibition at 25 µg/mL with RAW264.7 [1] of 14.2%.

In the data set on RAW264.7 [1], `COc1cc(/C=C2\CC(=O)NC2=O)ccc1O` yielded an inhibition at 25 µg/mL of 39.5%. Also, the Activity turned out to be 3304.1 U/L in the data set on Mus musculus [2] and 3126.9 U/L in the data set with Mus musculus [4]. For the same compound, half-maximal inhibition with RAW264.7 [5] (IC50) required 20.5 µM. As for `CN(C)c1ccc(/C=C2\SC(=N)NC2=O)cc1`, the inhibition at 25 µg/mL with RAW264.7 [1] worked out at 14%. `COc1cc(/C=C2\NC(=O)NC2=O)ccc1O` yielded an inhibition at 25 µg/mL with RAW264.7 [1] of 16.6%. In the case of `O=C1NC(=O)/C(=C/c2ccc(Br)cc2)N1`, testing at 25 µg/mL in the data set on RAW264.7 [1] gave an inhibition of 14%.

As to `O=C1NC(=O)C(=Cc2ccc(Br)cc2)C(=O)N1`, the inhibition at 25 µg/mL in the data set with RAW264.7 [1] was determined as 5.7%.

As to `COc1ccc(/C=C2\SC(=O)NC2=O)cc1`, the Activity entry in the data set on Mus musculus [6] is given as “Non-toxic”; in the data set on Mus musculus [2], 677.7 U/L; in the data set on Mus musculus [9], “Non-toxic”; in the data set with Mus musculus [10], “Non-toxic”; with Mus musculus [11], “Non-toxic”; in the data set on Mus musculus [12] it was “Non-toxic”. Further, the Activity in the data set on Mus musculus [4] is recorded as 620 U/L; with Mus musculus [13] it was “Non-toxic”. Further, the inhibition at 25 µg/mL in the data set with RAW264.7 [1] was found to be 57.8%. The same compound displayed a half-life in [7] of 3.37 h. In the data set with Mus musculus [8], the Cp was found to be 4980 ng/mL. The outcome in the data set with Mus musculus [3] was Active. The compound also registered an IC50 in the data set on RAW264.7 [5] of 0.72 µM. Moreover, in [14], the time to peak (Tmax) was 0.5 h. The compound also returned a bioavailability in [15] of 14.9%. The compound `COc1cc(/C=C2\SC(=O)NC2=O)ccc1O` displayed an inhibition at 25 µg/mL in the data set on RAW264.7 [1] of 15.8%. Same read-out and setting: under `CN(C)c1ccc(/C=C2\SC(=O)NC2=O)cc1` stands 15.8%; under `O=C1NC(=S)NC(=O)C1=Cc1ccccc1O`, 8.9%. The same measure, in the same setting: under `O=C1C/C(=C\c2ccc(Br)cc2)C(=O)N1` stands 14.3%. Same read-out and setting: under `COc1ccc(/C=C2\SC(=N)NC2=O)cc1` stands 18.6%; under `O=C1NC(=O)/C(=C/c2cccc(O)c2)S1`, 14.4%; under `N=C1NC(=O)/C(=C/c2ccc(Br)cc2)S1`, 16.6%. `COc1ccc(/C=C2\CC(=O)NC2=O)cc1` gave an inhibition at 25 µg/mL in the data set with RAW264.7 [1] of 13.3%. In the data set on RAW264.7 [1], `O=C1C/C(=C\c2ccc(O)cc2)C(=O)N1` gave an inhibition at 25 µg/mL of 8.4%.

In the case of `O=C1NC(=O)C(=Cc2ccc(Cl)cc2)C(=O)N1`, the inhibition at 25 µg/mL with RAW264.7 [1] came to 4.1%. The same measure, in the same setting: the figure for `CN(C)c1ccc(/C=C2\NC(=O)NC2=O)cc1` is 18.6%; for `O=C1NC(=O)/C(=C/c2cccc(O)c2)N1` it is 4.4%; for `COc1ccc(/C=C2\SC(=N)NC2=O)cc1OC` it is 9.4%. The same measure, in the same setting: the figure for `CN(C)c1ccc(C=C2C(=O)NC(=O)NC2=O)cc1` is 6.2%. `COc1ccc(C=C2C(=O)NC(=S)NC2=O)cc1`: at 25 µg/mL the inhibition in the data set with RAW264.7 [1] was 27.4%. Also, the Activity is on record as 3141.2 U/L in the data set on Mus musculus [2] and 2109.7 U/L in the data set with Mus musculus [4]. Besides, in the data set with Mus musculus [3], the result was Active. For the same compound, in the data set on RAW264.7 [5], inhibition was half-maximal at 11.2 µM (IC50). For `O=C1C/C(=C\c2ccccc2)C(=O)N1`, 25 µg/mL produced 5.7% inhibition with RAW264.7 [1]. Compound `O=C1NC(=O)C(=Cc2ccccc2O)C(=O)N1` yielded an inhibition at 25 µg/mL in the data set on RAW264.7 [1] of 5.8%. In the data set with RAW264.7 [1], `O=C1NC(=S)NC(=O)C1=Cc1ccc(O)cc1` displayed an inhibition at 25 µg/mL of 14.2%. On the same count and under the same terms, the figure for `O=C1NC(=O)/C(=C/c2ccc(Br)cc2)S1` is 16.9%.

These data come from ChEMBL document CHEMBL1156755, “Discovery of (Z)-5-(4-methoxybenzylidene)thiazolidine-2,4-dione, a readily available and orally active glitazone for the treatment of concanavalin A-induced acute liver injury of BALB/c mice” (J Med Chem, 2010).
